This test deals with full-length human LSD1 (Homo sapiens (Human), UniProt O60341). As to the kind of experiment: In vitro enzyme inhibition assay LSD-1 (TR-FRET). The following applies: H3K4me1-biotin peptide. The class given is biochemical. On the procedure: This assay determines the ability of a test compound to inhibit LSD1 demethylase activity.
The enzymatic assay of LSD1 activity is based on Time Resolved-Fluorescence Resonance Energy Transfer (TR-FRET) detection.
The ability of the compounds disclosed herein to inhibit LSD1 activity was quantified and the respective IC50 value was determined.
In turn, `CCc1ccc(-c2c(-c3ccc(C#N)cc3)nc(N3CCC(N)CC3)n(C)c2=O)cn1` [Example 10, 4-[2-(4-amino-piperidin-1-yl)-5-(6-ethyl-pyridin-3-yl)-1-methyl-6-oxo-1,6-dihydro-pyrimidin-4-yl]-benzonitrile] showed an IC50 of less than 100 nM.

For `COc1ccc(-c2c(-c3ccc(C#N)c(F)c3)nc(N3CCCNCC3)n(C)c2=O)cn1` [Example 61, 4-[2-[1,4]diazepan-1-yl-5-(6-methoxy-pyridin-3-yl)-1-methyl-6-oxo-1,6-dihydro-pyrimidin-4-yl]-2-fluoro-benzonitrile], the concentration for half-maximal inhibition (IC50) was less than 100 nM.

In the case of `CNCC1CN(c2nc(-c3ccc(C#N)c(F)c3)c(-c3ccc(OC)cc3)c(=O)n2C)C1` [Example 70, 2-fluoro-4-[5-(4-methoxy-phenyl)-1-methyl-2-(3-methylaminomethyl-azetidin-1-yl)-6-oxo-1,6-dihydro-pyrimidin-4-yl]-benzonitrile], the IC50 is less than 100 nM.

The compound `Cn1cc2cc(-c3c(-c4ccc(C#N)c(F)c4)nc(N4CCCNCC4)n(C)c3=O)ccc2n1` [Example 66, 4-[2-[1,4]diazepan-1-yl-1-methyl-5-(2-methyl-2H-indazol-5-yl)-6-oxo-1,6-dihydro-pyrimidin-4-yl]-2-fluoro-benzonitrile] gave an IC50 of less than 100 nM.

Regarding `COc1ccc(-c2c(-c3ccc(C#N)c(F)c3)nc(N3CCC(N)CC3)[nH]c2=O)cc1` [Example 122, 4-[2-(4-amino-piperidin-1-yl)-5-(4-methoxy-phenyl)-6-oxo-1,6-dihydro-pyrimidin-4-yl]-2-fluoro-benzonitrile], the half-maximal inhibitory concentration (IC50) was less than 100 nM.

`CN(C)c1ncc(-c2c(-c3ccc(C#N)c(F)c3)nc(N3CCC(N)CC3)n(C)c2=O)cn1` [Example 49, 4-[2-(4-amino-piperidin-1-yl)-2′-dimethylamino-1-methyl-6-oxo-1,6-dihydro-[5,5′]bipyrimidinyl-4-yl]-2-fluoro-benzonitrile] returned a half-inhibitory concentration (IC50) of less than 100 nM.

For the compound `COc1ccc(-c2c(-c3ccc(C#N)c(F)c3)nc(N3CC[C@@H](N)C3)n(C)c2=O)cc1F` [Example 27, 4-[2-((3R)-3-aminopyrrolidinyl)-5-(3-fluoro-4-methoxyphenyl)-1-methyl-6-oxohydropyrimidin-4-yl]-2-fluorobenzenecarbonitrile], the half-maximal inhibitory concentration (IC50) is less than 100 nM.

As to `CN(C)C1CCN(c2nc(-c3ccc(C#N)c(F)c3)c(-c3ccc4cn(C)nc4c3)c(=O)n2C)CC1` [Example 80, 4-[2-(4-dimethylamino-piperidin-1-yl)-1-methyl-5-(2-methyl-2H-indazol-6-yl)-6-oxo-1,6-dihydro-pyrimidin-4-yl]-2-fluoro-benzonitrile], the IC50 is less than 100 nM.

In turn, `CN(C)c1ncc(-c2c(-c3ccc(C#N)c(F)c3)nc(N3CCC(N(C)C)CC3)n(C)c2=O)cn1` [Example 81, 4-[2′-dimethylamino-2-(4-dimethylamino-piperidin-1-yl)-1-methyl-6-oxo-1,6-dihydro-[5,5′]bipyrimidinyl-4-yl]-2-fluoro-benzonitrile] had an IC50 of less than 100 nM.

In the case of `Cn1c(N2CCC(N)CC2)nc(-c2ccc(C#N)c(F)c2)c(-c2ccc(Cl)cc2)c1=O` [Example 106, 4-[2-(4-aminopiperidin-1-yl)-5-(4-chlorophenyl)-1-methyl-6-oxopyrimidin-4-yl]-2-fluorobenzonitrile], the half-inhibitory concentration (IC50) is less than 100 nM.

Consider `COc1ccc(-c2c(-c3ccc(C#N)c(F)c3)nc(N3CCC(N)CC3)n(CC(N)=O)c2=O)cc1` [Example 16, 2-[2-(4-amino-piperidin-1-yl)-4-(4-cyano-3-fluoro-phenyl)-5-(4-methoxy-phenyl)-6-oxo-6H-pyrimidin-1-yl]-acetamide], for which the IC50 is less than 100 nM.

The compound `Cn1c(N2CCC(N)CC2)nc(-c2ccc(C#N)c(F)c2)c(-c2ccc3[nH]ncc3c2)c1=O` [Example 88, 4-[2-(4-aminopiperidin-1-yl)-5-(1H-indazol-5-yl)-1-methyl-6-oxopyrimidin-4-yl]-2-fluorobenzonitrile] returned an IC50 of less than 100 nM.
